{
  "source": "patent US9474730B2",
  "about": "“Methods and compositions for use with K-ras mediated disorders” (Board of Regents of the University of Texas System, priority 2012, dated 2016)",
  "key": {"[1]": {"test_system": "BHK cells expressing constitutively active H-ras with endogenous K-ras knocked down", "assay": "K-ras knockdown (siRNA) in H-rasG12V cells, pERK Western blotting", "assay_type": "cell-based, hamster", "details": "then 6 μg/mL for 48 h", "protocol": "(§1) FIG. 7: Illustrates that H-rasG12V signals through endogenous K-ras: BHK cells stably expressing H-rasG12V were treated with vehicle or fendiline HCl (6 μg/mL) for 48 h. (A) ppMEK and ppERK in soluble protein fraction and pAkt levels in membrane protein fraction were measured by quantitative Western blotting. A representative blots are shown. (B) BHK cells stably expressing H-rasG12V were transfected with K-ras siRNA encoding plasmid. 24 h after transfection, cells were treated with vehicle or fendiline HCl (6 μg/mL) for a further 48 h. Whole cell lysates were prepared from serum starved cells and analyzed by quantitative Western blotting. Representative Western blots are shown. Data is shown as mean±SEM from 6 independent experiments. […] (*=p<0.05), and experimentation was performed in accordance with principles described herein;\nBHK cells expressing GFP-tagged H-rasG12V were transfected with the ON-Target K-ras specific siRNA pool or non-targeting control siRNA pool (Dharmacon, Inc., Lafayette, Colo., USA) according to manufacturer's protocol. At 24 h post-transfection, the cells were treated with vehicle or Fendiline HCl; 48 h later (72 h total knockdown time) the cells were lysed for Western blot analysis. […]\n(§2) Quantification of intensities was performed using FluorChemQ software."}, "[2]": {"test_system": "BHK cells expressing Myc-B-Raf V600E", "assay": "Signaling in cells expressing constitutively active BRaf, Western blotting", "assay_type": "cell-based, hamster", "details": "6 μg/mL, 48 h, serum starved BHK cells", "protocol": "FIG. 6: Illustrates that fendiline HCl inhibition occurs at the level of Ras: Whole cell lysates from serum starved BHK cells expressing vector control, FLAG-C-Raf-DD-CAAX or Myc-B-Raf V600E treated with vehicle or fendiline HCl (6 μg/mL) for 48 h were analyzed by quantitative Western blotting. Representative Western blots of c-Raf, pMEK, pERK and Actin (loading control) are shown. Data is shown as mean±SEM from 3-4 independent experiments. Statistical significance was calculated using one way ANOVA and Student's T-test. (*=p<0.05), wherein experimentation was performed in accordance with principles described herein;\n(§3) Preparation of whole-cell lysates: cells were lysed in Buffer B (50 mM Tris [pH 7.5], 75 mM NaCl, 25 mM NaF, 5 mM MgCl2, 5 mM EGTA, 1 mM dithiothreitol, 100 μM NaVO4, 1% Nonidet P-40 plus protease inhibitors). Cellular fractionation: cells were incubated in Buffer A (10 mm Tris-HCl, pH 7.5, 25 mm NaF, 5 mm MgCl2, 1 mm EGTA, 1 mm dithiothreitol, 100 μm NaVO4 plus protease inhibitors) for 30 minutes on ice and lysed by passing through a 27 G needle 30 times. The post nuclear supernatant was centrifuged at 100,000 g for 30 minutes and the membrane pellet was resuspended in Buffer A containing 1% Triton X-100.\nas §2"}, "[3]": {"target": "T1, GFP-K-rasG12V in MDCK or BHK cells (Homo sapiens, UniProt P01116, G12V)", "T1 construct": "MDCK and BHK cells expressing GFP-tagged full length constitutively active Ras (G12V) proteins; expressed in transfected cells", "assay": "Confocal fluorescence microscopy of GFP-tagged full length constitutively active Ras (G12V)", "assay_type": "cell-based, canine (MDCK), hamster (BHK)", "details": "48 h", "protocol": "FIG. 2: Illustrates that fendiline HCl mislocalizes GFP-K-rasG12V but not GFP-H-rasG12V: (A) MDCK or BHK [Baby Hamster Kidney] cells expressing GFP-K-rasG12V or GFP-H-rasG12V were grown on cover slips, treated with vehicle or fendiline HCl (4 μg/mL for MDCK and 6 μg/mL for BHK) for 48 h and fixed with paraformaldehyde. Cells were imaged using a confocal microscope. (B) BHK cells expressing GFP-K-rasG12V or GFP-H-rasG12V (green) were treated with vehicle or fendiline HCl (6 μg/mL) for 48 h. Following treatment, cells were fixed and immuno-labeled with antibodies against PDI (ER marker-red) or p58 (golgi marker-red). Colocalization between GFP and the respective marker protein is shown in yellow. Shown are representative images from 3 independent experiments wherein experimentation was performed in accordance with principles described herein;\nCells were further analyzed using fluorescence microscopy, where cells were grown on coverslips, treated with 1% vehicle (DMSO) or varying concentrations of selected compounds for 48 h, and fixed with 4% paraformaldehyde. The coverslips were mounted in Mowiol® and visualized by confocal microscopy (Nikon A1) using a 60× objective. The cells were immuno-staining, where cells were fixed, permeabilized in 0.1% Triton in PBS for 30 min, and blocked with 0.2% bovine serum albumin and 0.2% fish skin gelatin in PBS for 30 min. […]"}, "[4]": {"target": "T1, GFP-K-rasG12V in MDCK or BHK cells", "assay": "Cellular fractionation (P100/S100) with quantitative Western blotting, GFP-K-rasG12V", "assay_type": "cell-based, canine (MDCK), hamster (BHK)", "details": "4 μg/mL for MDCK and 6 μg/mL for BHK, 48 hours, vs vehicle", "protocol": "Following treatment, membrane (P100) and soluble (S100) protein fractions were prepared and analyzed by quantitative Western blotting.\nas §3\nSDS-PAGE and Western blotting with the specified antibody were performed using 20 μg of each whole cell lysate/P100 fraction and volumes of S100 equal to that of the corresponding P100. Signal was detected by enhanced chemiluminescence (SuperSignal; Pierce, Thermo Fisher Scientific, Rockford, Ill.) and imaged by FluorChemQ (Alpha Inotech, San Leandro, Calif., USA). Quantification of intensities was performed using FluorChemQ software."}, "[5]": {"test_system": "MDCK and BHK cells expressing oncogenic mutant H-RasG12V", "assay": "Signaling in cells expressing oncogenic H-RasG12V, Western blotting", "assay_type": "cell-based, canine (MDCK), hamster (BHK)", "details": "to the similar extent as in K-rasG12V cells, 6 μg/mL, 48 h", "protocol": "as §1, §3, §2"}},
  "note": "Counter-ions that a name gives are not always drawn.",
  "data": [
    {"smiles": "CC(NCCC(c1ccccc1)c1ccccc1)c1ccccc1", "note": "(centres unmarked) [fendiline HCl]", "values": [
      {"measurement": "pERK levels after K-ras knockdown", "setting": "[1]", "value": "did not further reduce pERK levels"},
      {"measurement": "signaling downstream of constitutively active BRaf", "setting": "[2]", "value": "inhibited signaling downstream of constitutively active BRaf"},
      {"measurement": "localization of GFP-K-rasG12V relative to ER (PDI) and Golgi (p58) markers", "setting": "[3]; BHK cells, 6 μg/mL, immunofluorescence", "value": "partially mislocalizes to the ER and golgi"},
      {"measurement": "inhibition of plasma membrane localization, K isoform compared to H and N", "setting": "[3]; GFP-tagged full length Ras (G12V), 4 μg/mL for MDCK and 6 μg/mL for BHK", "value": "more potent inhibitor of plasma membrane localization of the K isoform as compared to H (FIG. 2A) and N"},
      {"measurement": "soluble fraction of GFP-K-rasG12V", "setting": "[4]", "value": "increases the soluble fraction of GFP-K-rasG12V"},
      {"measurement": "pAkt levels", "setting": "[5]", "value": "decreased"},
      {"measurement": "pERK levels", "setting": "[5]", "value": "decreased"},
      {"measurement": "pMEK levels", "setting": "[5]", "value": "decreased"}
    ]}
  ]
}
